Reference: PMC9609996, “SAR Study and Molecular Mechanism Investigation of Novel Naphthoquinone-furan-2-cyanoacryloyl Hybrids with Antitumor Activity” (Pharmaceutics, 2022)

Legend:
Hep3B = test: CCK-8 anti-proliferation assay, Hep3B; type: cell-based, human; conditions: 48 h, mean ± SD
Procedure: (§1) Human cervical cancer HeLa, human prostate cancer PC3, human colonic carcinoma HCT116, human lung carcinoma A549, human breast cancer MDA-MB-231, mouse melanoma B16, human ovarian cancer SKOV3, human hepatoma Hep3B, and human liver L02 cells were purchased from the Cell Bank of Shanghai Institute of Biochemistry and Cell Biology, Chinese Academy of Sciences (Shanghai, China). The HeLa, A549, B16, PC3, MDA-MB-231, HCT116, and L02 cells were cultured in Dulbecco’s modified Eagle medium (DMEM, Gibco Inc.; Gaithersburg, MD, USA). All cultures were supplied with 10% fetal bovine serum (FBS; YHSM, Beijing, China), 100 IU/mL of penicillin, and 100 μg/mL of streptomycin, and cells were incubated at 37 °C in an atmosphere of 5% CO2.
(§2) A CCK-8 kit (MCE, USA) was used to perform a CCK-8 assay. Cells were plated and grown in the 96-well plates for the indicated period (48 h) in the incubator, followed by an incubation with the CCK-8 solutions for 1–4 h. Subsequently, the absorbance (450 nm) was measured by a microplate reader. The median inhibitory concentration (IC50) was determined from the dose–response curve. Experiments were performed in a triplicate.

[1] = tested on: four cancer cell lines (HeLa, PC3, A549, and HCT116); test: CCK-8 inhibition rates over four cancer cell lines; type: cell-based; conditions: Homo sapiens, HeLa, PC3, A549, HCT116, CCK-8, read-out: inhibition rate, span over the four cancer cell lines
Procedure: First, the inhibition rates at 20 μM for all newly synthesized compounds were evaluated on four cancer cell lines (HeLa, PC3, A549, and HCT116) by a CCK-8 assay. […] A variety of aliphatic amine substituents were well tolerated (4e, 4f, 5c, and 8f).
as §1, §2

HeLa cells [2] = test: Cell cycle analysis by flow cytometry; type: cell-based, human; conditions: 12 μM; 24 h; 10.19% at 0 μM
Procedure: To investigate the effect of compound 5c on the cell cycle distribution, a flow cytometric analysis was performed. HeLa cells were treated with 5c at concentrations of 0 μM, 6 μM, 9 μM, and 12 μM for 24 h and then subjected to a flow cytometric analysis after DNA staining. […] Accordingly, treatment of HeLa cells with 5c induced a G2/M phase arrest of cell cycle progression.
For the cell cycle analysis, HeLa cells seeded in a 6-well plate (3 × 10^5 per well) were incubated with different concentrations of compound 5c or 0.1% DMSO for 24 h. Then, the cells were digested with 0.25% trypsin (without EDTA) and were washed twice with PBS, fixed in 70% ethanol overnight, and stained with PI ([…], Sigma) plus 0.2 mg/mL of DNase-free RNase A (Qiagen) for 20 minutes at room temperature. For the annexin V apoptosis assay, HeLa cells seeded in a 6-well plate (3 × 10^5 per well) were incubated with different concentrations of compound 5c or 0.1% DMSO for 24 h. Then, the cells were digested with 0.25% trypsin (without EDTA) and were washed twice with PBS. The cells were then collected and resuspended in 500 μL of the binding buffer. We added 5 μL of annexin V-FITC and PI each into the mixture in the dark. After 20 min of incubation, a flow cytometer (FACSCalibur; Becton Dickinson, Franklin Lakes, NJ, USA) was used to detect apoptosis (FITC Ex/Em = 488/525 nm and PI Ex/Em = 535/615 nm). […]

HeLa cells [3] = test: Wound healing assay; type: cell-based, human; conditions: 6 μM, 48 h
Procedure: A total of 1 × 10^6 HeLa cells/well in the logarithmic growth phase were seeded into 6-well plates. When the cell density reached 80–90%, a scratch was made in the monolayer in the middle of the well with a 200 μL pipette tip. The tip was kept perpendicular to the bottom of the well to obtain a straight gap. The detached cells were washed away and removed. Wound healing within the same scraped line was then observed and photographed at the indicated time points (0 h, 24 h, and 48 h). Images were taken at 0 h, 24 h and 48 h after scraping using a phase-contrast microscope. The wound closure was calculated as a percentage (%) of the difference in the width of the wound between 0 h, 24 h and 48 h relative to 0 h, as described below: Wound closure (%) = (Width of wound at 0 h − Width of wound at 24 h)/Width of wound at 0 h × 100%

HeLa cells [4] = test: Colony formation assay; type: cell-based, human; conditions: treated 24 h, cultured two weeks
Procedure: HeLa cells were cultured at 1 × 10^3 cells per well in a 6-well plate with a regular growth medium for 12 h. After the cells were fixed on the wall, they were treated with different concentrations of compound 5c or 0.1% DMSO for 24 h. Then, the cells were cultured in a fresh medium for two weeks until the colonies were visible. A crystal violet staining solution (Beyotime, Shanghai, China) was used to stain the colonies for 30 min, and the result was recorded by a smartphone. The colonies were defined as >50 cells/colony.

Bax in HeLa cells = test: Western blot, Bax; type: cell-based, human; conditions: 6–12 μM, 24 h
Procedure: Protein levels were determined by the standard Western blot assay. HeLa cells were incubated with different concentrations of compound 5c or 0.1% DMSO for 24 h. Cells harvested with trypsin were treated with 1× RIPA lysis buffer (50 mM Tris-HCl, pH 7.4, 150 mM NaCl, 0.25% deoxycholic acid, 1% NP-40, 1 mM ethylenediaminetetraacetate (EDTA), and protease inhibitor PMSF (Solarbio, Beijing, China) to extract the total proteins. Then, an aliquot of proteins from the total cell lysates (4–40 μg/lane) was separated using sodium dodecyl sulfate (8, 10, or 12%) polyacrylamide gel electrophoresis (BioRad Laboratories, Hercules, CA, USA). The aliquot was wet-transferred to a PVDF membrane (BioRad Laboratories, Hercules, CA, USA), blotted with primary antibodies (purchased from Cell Signaling Technology, Danvers, MA, USA) specific for the STAT3 (#12640), p-STAT3 (#9145), AKT (#4691), p-AKT (#4060), Bax (#5023), Bcl-xl (#2764), secondary isotype-specific antibodies (#7074) and glyceraldehyde-3-phosphate dehydro-genase (GAPDH, #2118) as the internal standard overnight; then, they were probed with secondary isotype-specific antibodies for another 2 h at 37 °C. The bound immuno-complexes were detected using a ChemiDOC XRS+ system (BioRad Laboratories, Hercules, CA, USA).

N#C/C(=C\c1ccc(C2=CC(=O)c3ccccc3C2=O)o1)C(=O)NCCN1CCOCC1 [Compound 5c, (E)-2-cyano-3-(5-(1,4-dioxo-1,4-dihydronaphthalen-2-yl)furan-2-yl)-N-(2-morpholinoethyl)acrylamide]
IC50 (Hep3B): 34.77 ± 0.03 µM
IC50 (Hep3B; Homo sapiens): > 20.5 µM
inhibition at 20 µM [1]: 24.7 to 75.8%
HeLa cell population in the G2/M phase (HeLa cells [2]): 23.88%
cell migration (HeLa cells [3]): significantly inhibited
colony forming ability of HeLa cells (HeLa cells [4]): significantly inhibited
levels of Bax (Bax in HeLa cells): increased
